# Assay results as given in ChEMBL document CHEMBL5032490, “Neuroactive Type-A γ-Aminobutyric Acid Receptor Allosteric Modulator Steroids from the Hypobranchial Gland of Marine Mollusk, Conus geographus” (J Med Chem, 2021).
# Calls of active or inactive are those of the source.
# Assays:
# [1] = test system: HEK; assay: Negative allosteric modulation of human GABA receptor expressed in HEK cells assessed as inhibition of GABA-induced current in presence of EC20 concentration of GABA by patch clamp method; assay type: cell-based; settings: filed as negative allosteric modulator
# [2] = test system: Mus musculus; assay: Antinociceptive activity in C57BL6 mouse model of inflammatory pain assessed as total number of responses during second phase at 2 to 50 mg/kg, ip administered by formalin test; assay type: functional, organism-based; settings: dose 2-50 mg/kg
# [3] = Reduction of ATP and Kcl-induced increase in cytosolic Ca2+ ion concentration mouse DRG other neuron subtype assessed as neuron population at 10 uM measured after 1 hr by Fura2AM dye based fluorescence microscopic analysis; assay type: functional; design: scale not given: the % may be the effect or the level left
# [4] = Induction of ATP and Kcl-induced increase in cytosolic Ca2+ ion concentration mouse DRG other neuron subtype assessed as neuron population at 10 uM measured after 1 hr by Fura2AM dye based fluorescence microscopic analysis; assay type: functional
# [5] = Induction of cytosolic calcium ion concentration in mouse non-peptidergic nociceptive DRG neuron at 10 uM measured after 1 hr by Fura2AM dye based fluorescence microscopic analysis; assay type: functional
# [6] = Reduction of ATP and Kcl-induced increase in cytosolic Ca2+ ion concentration mouse […] assessed as neuron population at 10 uM measured after 1 hr by Fura2AM dye based fluorescence microscopic analysis; assay type: functional; design: scale not given: the % may be the effect or the level left
# [7] = target: T1, GABA-A receptor; alpha-5/beta-3/gamma-2 (Homo sapiens, UniProt P18507+P28472+P31644); assay: Negative allosteric modulation activity at human GABAA alpha5beta3gamma2 stably expressed in HEK cells by patch clamp method; assay type: cell-based
# T1 sequence (P18507 whole entry): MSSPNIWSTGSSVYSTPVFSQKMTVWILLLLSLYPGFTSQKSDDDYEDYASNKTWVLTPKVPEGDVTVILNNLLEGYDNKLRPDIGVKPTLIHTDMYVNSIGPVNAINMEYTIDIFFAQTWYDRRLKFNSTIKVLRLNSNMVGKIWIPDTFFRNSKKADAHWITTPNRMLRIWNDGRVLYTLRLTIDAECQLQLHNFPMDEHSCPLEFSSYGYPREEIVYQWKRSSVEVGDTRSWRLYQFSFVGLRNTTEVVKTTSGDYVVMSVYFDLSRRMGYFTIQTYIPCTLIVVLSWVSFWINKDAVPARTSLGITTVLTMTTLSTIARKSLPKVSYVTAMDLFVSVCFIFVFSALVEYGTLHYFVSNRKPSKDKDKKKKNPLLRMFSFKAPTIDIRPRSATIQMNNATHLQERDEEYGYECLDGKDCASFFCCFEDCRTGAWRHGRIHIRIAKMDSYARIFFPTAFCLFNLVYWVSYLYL
# T1 sequence (P28472 whole entry): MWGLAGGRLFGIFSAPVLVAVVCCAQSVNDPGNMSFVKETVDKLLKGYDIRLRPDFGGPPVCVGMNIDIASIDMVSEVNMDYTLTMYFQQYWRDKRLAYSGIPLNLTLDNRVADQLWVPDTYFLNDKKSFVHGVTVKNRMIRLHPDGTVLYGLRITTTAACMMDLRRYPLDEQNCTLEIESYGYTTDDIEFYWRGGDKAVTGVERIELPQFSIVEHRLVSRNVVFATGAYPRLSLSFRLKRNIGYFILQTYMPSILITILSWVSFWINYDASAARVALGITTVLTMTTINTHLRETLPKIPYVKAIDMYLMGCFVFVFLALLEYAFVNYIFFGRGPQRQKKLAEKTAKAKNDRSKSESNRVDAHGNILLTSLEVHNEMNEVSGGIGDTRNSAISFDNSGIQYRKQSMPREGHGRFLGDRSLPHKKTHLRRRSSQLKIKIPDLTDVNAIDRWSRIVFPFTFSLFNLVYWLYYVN
# T1 sequence (P31644 whole entry): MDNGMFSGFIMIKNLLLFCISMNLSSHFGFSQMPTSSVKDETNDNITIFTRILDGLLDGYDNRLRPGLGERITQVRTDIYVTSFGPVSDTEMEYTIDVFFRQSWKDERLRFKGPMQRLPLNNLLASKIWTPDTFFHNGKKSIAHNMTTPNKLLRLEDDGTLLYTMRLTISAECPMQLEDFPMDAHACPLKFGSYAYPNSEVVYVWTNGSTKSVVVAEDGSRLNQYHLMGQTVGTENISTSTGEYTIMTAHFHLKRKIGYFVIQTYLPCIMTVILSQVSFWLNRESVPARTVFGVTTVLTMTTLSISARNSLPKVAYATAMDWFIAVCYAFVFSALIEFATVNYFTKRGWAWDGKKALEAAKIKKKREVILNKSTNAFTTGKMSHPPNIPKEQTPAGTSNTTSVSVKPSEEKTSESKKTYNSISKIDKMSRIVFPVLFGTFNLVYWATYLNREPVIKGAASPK
# [8] = Induction of ATP and Kcl-induced increase in cytosolic Ca2+ ion concentration mouse peptidergic nociceptive DRG neuron assessed as neuron population at 10 uM measured after 1 hr by Fura2AM dye based fluorescence microscopic analysis; assay type: functional
# [9] = test system: Neuron; assay: Negative allosteric modulation of mouse GABA receptor in mouse non-peptidergic nociceptive DRG neurons assessed as inhibition of KCl-induced response at 10 uM; assay type: tissue-based; settings: filed as negative allosteric modulator
# [10] = test system: Neuron; assay: Negative allosteric modulation of mouse GABA receptor in mouse C-low-threshold mechanoreceptive DRG neurons assessed as inhibition of KCl-induced response at 10 uM; assay type: tissue-based; settings: filed as negative allosteric modulator
# [11] = Reduction of ATP and Kcl-induced increase in cytosolic Ca2+ ion concentration mouse non-peptidergic nociceptive DRG neuron assessed as neuron population at 10 uM measured after 1 hr by Fura2AM dye based fluorescence microscopic analysis; assay type: functional; design: scale not given: the % may be the effect or the level left
# [12] = Induction of cytosolic calcium ion concentration in mouse DRG other neuron subtype at 10 uM measured after 1 hr by Fura2AM dye based fluorescence microscopic analysis; assay type: functional
# [13] = test system: Mus musculus; assay: Anxiolytic activity in restraint stress induced anxiety mouse model assessed as total number of responses at 2 to 50 mg/kg, ip administered measured after 5 mins by plus maze test; assay type: functional, organism-based; settings: dose 2-50 mg/kg
# [14] = test system: Neuron; assay: Negative allosteric modulation of mouse GABA receptor in mouse C-low-threshold mechanoreceptive DRG neurons assessed as inhibition of KCl-induced response at 40 uM; assay type: tissue-based; settings: filed as negative allosteric modulator
# [15] = test system: Neuron; assay: Negative allosteric modulation of mouse GABA receptor in mouse peptidergic nociceptive DRG neurons assessed as inhibition of KCl-induced response at 10 uM; assay type: tissue-based; settings: filed as negative allosteric modulator
# [16] = test system: Mus musculus; assay: Antinociception activity in mouse model assessed as reduction in thermal hypersensitivity at 2 to 50 mg/kg, ip by hot plate test; assay type: functional, organism-based; settings: dose 2-50 mg/kg
# [17] = test system: Neuron; assay: Negative allosteric modulation of human GABA receptor expressed in mouse DRG neurons assessed as inhibition of 340 nM GABA-induced responses at 0.5 uM using nociceptor; assay type: tissue-based; settings: filed as negative allosteric modulator
# [18] = target: GABA A receptor alpha-4/beta-3/gamma-2 (Homo sapiens, UniProt P18507+P28472+P48169); assay: Negative allosteric modulation activity at human GABAA alpha4beta3gamma2 stably expressed in HEK cells by patch clamp method; assay type: cell-based
# Chain of GABA A receptor alpha-4/beta-3/gamma-2 (P48169 whole entry, one chain of several): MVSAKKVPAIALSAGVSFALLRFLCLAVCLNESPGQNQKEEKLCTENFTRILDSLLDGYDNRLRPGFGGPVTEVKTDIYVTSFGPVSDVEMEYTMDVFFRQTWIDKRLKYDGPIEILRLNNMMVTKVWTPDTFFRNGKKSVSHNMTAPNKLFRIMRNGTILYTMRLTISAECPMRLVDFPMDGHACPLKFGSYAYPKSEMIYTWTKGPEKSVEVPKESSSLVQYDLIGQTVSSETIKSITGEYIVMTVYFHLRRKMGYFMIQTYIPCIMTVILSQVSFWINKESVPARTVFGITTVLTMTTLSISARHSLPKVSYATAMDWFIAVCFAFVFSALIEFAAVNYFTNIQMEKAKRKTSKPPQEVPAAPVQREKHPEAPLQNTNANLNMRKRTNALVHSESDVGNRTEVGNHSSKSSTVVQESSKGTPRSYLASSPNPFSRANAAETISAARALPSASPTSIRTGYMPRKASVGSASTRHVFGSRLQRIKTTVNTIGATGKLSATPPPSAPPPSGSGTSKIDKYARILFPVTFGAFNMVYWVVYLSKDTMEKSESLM
# [19] = test system: Neuron; assay: Negative allosteric modulation of mouse GABA receptor in mouse DRG neurons assessed as inhibition of KCl-induced response at 10 uM using cold thermosensors; assay type: tissue-based; settings: filed as negative allosteric modulator
# [20] = Induction of ATP and Kcl-induced increase in cytosolic Ca2+ ion concentration mouse […] assessed as neuron population at 10 uM measured after 1 hr by Fura2AM dye based fluorescence microscopic analysis; assay type: functional
smiles,measurement,setting,value
CC(C)CCC[C@@H](C)[C@H]1CC[C@H]2[C@@H]3C(=O)C=C4C=CCC[C@]4(C)[C@H]3CC[C@]12C,Activity,[1],Active
same,Activity,[2],inactive
same,Activity,[3],5%
same,Activity,[4],7%
same,Activity,[5],27%
same,Activity,[6],14%
same,IC50,[7],19.4 µM
same,Activity,[8],56%
same,Activity,[9],Active
same,Activity,[10],Active
same,Activity,[11],9%
same,Activity,[12],3%
same,Activity,[13],inactive
same,Activity,[14],Active
same,Activity,[15],Active
same,Activity,[16],Active
same,Activity,[17],Active
same,IC50,[18],1 µM
same,Activity,[19],Active
same,Activity,[20],4%
